Literature values as cited in patent US8535722B2, “Functionally graded biocompatible coating and coated implant” (priority 2005, dated 2013).

For `[Ag]` [Ag/Ag^+, silver], the “threshold of cytotoxicity in vivo” value is listed as 10 ppm.
